Legend:
[1] = target: T1, COX-2 (Homo sapiens, UniProt P35354); experiment: COX Inhibitor Screening Assay Kit, COX-2; type: biochemical
T1 sequence (P35354 18-604): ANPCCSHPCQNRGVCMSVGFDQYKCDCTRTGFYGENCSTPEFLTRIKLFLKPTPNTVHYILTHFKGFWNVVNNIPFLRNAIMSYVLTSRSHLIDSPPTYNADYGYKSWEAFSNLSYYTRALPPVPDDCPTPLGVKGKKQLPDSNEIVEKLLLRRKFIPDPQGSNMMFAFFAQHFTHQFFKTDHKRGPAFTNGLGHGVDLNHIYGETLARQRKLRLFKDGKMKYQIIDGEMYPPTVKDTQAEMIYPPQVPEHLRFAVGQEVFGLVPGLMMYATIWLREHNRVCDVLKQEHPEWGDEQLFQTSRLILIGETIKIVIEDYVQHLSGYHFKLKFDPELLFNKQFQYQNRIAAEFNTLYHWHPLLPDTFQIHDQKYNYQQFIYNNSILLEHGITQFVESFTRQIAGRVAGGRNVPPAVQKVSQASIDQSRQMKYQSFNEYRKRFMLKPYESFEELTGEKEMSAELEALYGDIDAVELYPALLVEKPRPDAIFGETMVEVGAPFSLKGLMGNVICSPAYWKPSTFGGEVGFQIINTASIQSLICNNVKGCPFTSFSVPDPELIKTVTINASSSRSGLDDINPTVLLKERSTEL
Text: (§1) Fifty percent inhibitory concentration (IC50) means the concentration of test sample necessary for inhibiting PGE2 synthesis by 50% compared to non-inhibitory control sample. It can be also determined by measuring the amount of PGE2 produced by adding test samples to cells having cyclooxygenase activity. COX-1/COX-2 ratio means the ratio of […], and the higher the ratio is, the more specific to COX-2 the agent is.
(§2) To verify the results of Experiment 2, it was investigated that whether the activity of COXs, essential enzymes for PGE2 synthesis system, can be inhibited. […] An experimental system without the test samples was set as control. The residual activity of COX-1 or COX-2 was determined as relative activity versus control.

[2] = tested on: Mouse melanoma cell line B16; experiment: Melanin synthesis in B16 cells; type: cell-based; conditions: 5 days, per mg protein versus control
Description: (§3) As control, a system with no test sample was provided. […] The amount of protein was measured by conventional Bradfordmethod and the amount of melanin per 1 mg of protein was calculated. The amount of melanin (%) was calculated according to Formula 4, and the living cell rate (%) was calculated according to Formula 5.
As control, a system with no test sample was provided. […] The amount of protein was measured by conventional Bradford method and the amount of melanin per 1 mg of protein was calculated. The amount of melanin (%) was calculated according to Formula 4.

[3] = tested on: RAW264.7 cells; experiment: Macrophage growth, living cell count; type: cell-based, mouse; conditions: 2 days, relative level versus control
Text: RAW264.7 cells, a murine macrophage cell strain, were suspended in PRMI1640 medium supplied with 10% (v/v) fetal calf serum (hereinafter abbreviated as “FCS”) to give a cell suspension with a cell concentration of 1×10^6 cells/ml. […] The experimental system without the test samples described above was set as control. […] NO production, PGE2 production and macrophage growth are indicated as relative levels versus controls.

[4] = tested on: Mouse melanoma cell line B16; experiment: Living cell rate of B16 cells; conditions: 5 days, versus control
Description: as §3

[5] = target: T2, COX-1 (Ovis aries, UniProt P05979); experiment: COX Inhibitor Screening Assay Kit, COX-1; type: biochemical
T2 construct: purchased Cayman Chemical Company
T2 sequence (P05979 25-600): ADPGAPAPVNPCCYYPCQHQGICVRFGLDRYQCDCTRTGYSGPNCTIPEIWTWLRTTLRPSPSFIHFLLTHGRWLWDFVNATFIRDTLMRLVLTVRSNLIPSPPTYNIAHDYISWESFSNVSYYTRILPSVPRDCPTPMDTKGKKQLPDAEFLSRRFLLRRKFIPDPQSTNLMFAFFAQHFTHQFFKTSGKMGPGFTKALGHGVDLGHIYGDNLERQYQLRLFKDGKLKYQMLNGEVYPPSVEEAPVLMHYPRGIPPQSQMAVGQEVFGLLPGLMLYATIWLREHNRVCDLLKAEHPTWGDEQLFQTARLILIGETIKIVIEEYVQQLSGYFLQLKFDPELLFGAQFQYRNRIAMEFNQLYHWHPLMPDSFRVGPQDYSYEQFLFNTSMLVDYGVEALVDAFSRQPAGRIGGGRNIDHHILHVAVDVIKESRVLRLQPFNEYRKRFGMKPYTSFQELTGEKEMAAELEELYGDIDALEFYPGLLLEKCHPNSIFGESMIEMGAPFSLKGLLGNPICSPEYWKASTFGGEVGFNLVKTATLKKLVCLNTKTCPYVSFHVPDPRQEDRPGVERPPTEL
Text: as §1, §2

[6] = read-out: residual activity of COX-2
[7] = read-out: residual activity of COX-1

## Nc1cc2nc3ccccc3oc-2cc1=O [2-Aminophenoxazine-3-one, 2-aminophenoxazine-3-one]
[1]; PGE2 from arachidonic acid, read-out: IC50 COX-2
  IC50: 4.83 µM
[1]; ratio of IC50 values of Table 2
  COX-1/COX-2 ratio: about 1.3
[1]; [6]
  remaining activity at 1.9 µM: 95%
  remaining activity at 3.8 µM: 37%
  remaining activity at 7.6 µM: 29%
[2]; 0.5 μM
  Amount of melanin (%): 74%
[2]; 1 μM
  Amount of melanin (%): 69%
[2]; 2 μM
  Amount of melanin (%): 61%
[3]; 0.16 μM
  Macrophage growth (%): 117%
[3]; 0.31 μM
  Macrophage growth (%): 121%
[3]; 0.63 μM
  Macrophage growth (%): 127%
[3]; 1.3 μM
  Macrophage growth (%): 127%
[3]; 2.5 μM
  Macrophage growth (%): 119%
[3]; 5.0 μM
  Macrophage growth (%): 112%
[3]; 10 μM
  Macrophage growth (%): 86%
[4]; 0.5 μM
  Living cell rate (%): 107%
[4]; 1 μM
  Living cell rate (%): 95%
[4]; 2 μM
  Living cell rate (%): 77%
[5]; PGE2 from arachidonic acid, read-out: IC50 COX-1
  IC50: 6.44 µM
[5]; [7]
  remaining activity at 1.9 µM: 89%
  remaining activity at 3.8 µM: 59%
  remaining activity at 7.6 µM: 44%

Reference: US20100324285A1, “ANTIINFLAMMATORY AGENT COMPRISING 2-AMINOPHENOL OR DERIVATIVE THEREOF AS ACTIVE INGREDIENT” (priority 2006, published 2010)
